Where “and” joins values, the source holds several entries; their conditions need not be identical. Identical values can stand only once.
Legend:
[1] = Pharmacokinetic experiment in plasma; format: in vivo; conditions: male ICR mice, Compound 6 1.5 mg/kg ip
Procedure: (§1) Male ICR mice weighing 20-22 g were intraperitoneally injected with Compound 6 (1.5 mg/kg), and then blood was taken from the orbit at 5 min, 10 min, 15 min, 30 min, 1 h, 2 h, 4 h, 6 h, 8 h, 12 h, and 24 h. The heparin anticoagulant was added, placed on ice, and centrifuged at 7000 r/min for 7 min. The plasma was separated for use. 60 μl of acetonitrile was added to 20 μL of the plasma sample obtained after administration, to precipitate the protein. After high-speed centrifugation at 13300 r/min for 7 min, 60 μl of the supernatant was taken and centrifuged at 13300 r/min for 4 min. 5 μl of the supernatant was taken for UPLC/MS analysis. Plasma pharmacokinetics was analyzed by Winnolin software and fitted by a non-compartmental model.
as §1, with “Compound 20” for “Compound 6”, “protein. […]” for “protein. After high-speed centrifugation at 13300 r/min for 7 min, 60 μl of the supernatant was taken and centrifuged at 13300 r/min for 4 min. 5 μl of the supernatant was taken for UPLC/MS analysis.”

EV71 [2] = experiment: Therapeutic effect on EV71-infected mice; format: in vivo, ICR mice; conditions: 7 days
Procedure: 10-day-old SPF grade ICR mice (female:male 1:1) were used. A placebo group and a treatment group with Compound 1 were set, each group having 10 mice. The mice were infected with the virus by intraperitoneal injection. 2 hrs after infection, the mice were administered by intraperitoneal injection. The dosage of Compound 1 was set to 1 mg/kg body weight/day. The mice in the placebo group were injected with the same dose of normal saline, and the mice in each group were administered once a day for consecutive 7 days. From the day of virus infection, the observation was made twice a day for 14 days. The weight, symptoms and survival rate of the mice were recorded.

CAV16 = experiment: In-vitro experiment against Coxsackievirus A16 (CAV16) (RD cells, MTT); format: cell-based, Coxsackievirus Virus A16 (CAV16)
Procedure: (§2) RD cells were seeded into a 96-well plate (10^4 cells/well), and infected with 100×TCID50 of CAV16 viruses. After 2 hrs, various concentrations of the derivative were added. […] Uninfected cells were also given various concentrations of the derivative to determine the CC50.

EV71 [3] = experiment: In-vitro experiment against EV71 virus (RD cells, MTT); format: cell-based
Procedure: (§3) RD cells were seeded into a 96-well plate (10^4 cells/well), and infected with 100× TCID50 of EV71 viruses. After 2 hrs, various concentrations of the derivative were added. […] Uninfected cells were also given various concentrations of the derivative to determine the CC50.

[4] = Cytotoxicity in uninfected RD cells (CC50, MTT); format: cell-based; conditions: human, Table 1
Procedure: as §3, §2

Molecule | t1/2z ([1]; title: metabolite of Compound 6, individual animals 1-3, 1.5 mg/kg) | t1/2z Mean ± SD ([1]; title: metabolite of Compound 6, mean of 3) [h] | mortality rate (EV71 [2]; 10-day-old ICR mice infected ip with EV71, 1 mg/kg body weight/day ip, observed 14 days, placebo 100%) [%] | recovery of surviving mice (EV71 [2]; EV71-infected ICR mice, 1 mg/kg/day ip, after 14 days) | symptoms, weight loss and paralysis (EV71 [2]; EV71-infected ICR mice, 1 mg/kg/day ip, versus placebo) | EC50 (CAV16; Coxsackievirus, RD cells infected with 100x TCID50 CAV16, compound added after 2 hrs, MTT at 48 hrs) [µM] | SI (CAV16; selectivity index, CAV16, RD cells) | EC50 (EV71 [3]; Enterovirus A, RD cells infected with 100x TCID50 EV71, compound added after 2 hrs, MTT at 48 hrs) [µM] | SI (EV71 [3]; selectivity index, EV71, RD cells) | CC50 at 48 h [4] [µM]
1-(4-fluoro-phenoxyacetyl)-lycorine [Compound 6] | 25.719 h and 14.311 h and 26.875 h | 22.3 ± 6.94 |  |  |  |  |  |  |  | 
O=C(COc1ccccc1)OC1C(O)C=C2CCN3Cc4cc5c(cc4C1C23)OCO5 (stereo not shown) [Compound 1, 1-phenoxyacetyl-lycorine] |  |  | 40 | the surviving mice recover to normal after 14 days | reduced symptoms, and significantly alleviated weight loss and paralysis | 1.19 | 99.80 | 1.64 | 72.41 | 119
